Test systems include NCI-H23; OVCAR-4; COLO 205; EKVX; M19-MEL; A498; SW-620; SNB-19; DLD-1; OVCAR-5; CAKI-1; HCT-15; UACC-257; SR; SF-295; A549; K562.
What all share (assay): inhibition of tumour cell growth, NCI panel, 48 h

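Values below derive from 48-hour exposures of cells grown in 96-well plates, with endpoints linearly interpolated between the two concentrations bracketing the appropriate inhibition level. At the GI50, growth is halved.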 Activity calls are given as the source filed them. Rule as the data show it: active = GI50 up to about 1.1 µM and inactive = higher.

As for `Cc1cccc(C)c1NC(=O)CCCC(=O)C1/C(=N/NC(=O)CC#N)CCC/C1=N\NC(=O)CC#N` (stereo not given), the GI50 in the test with NCI-H23, with OVCAR-4, in the test on COLO 205, in the test with EKVX, in the test with M19-MEL and in the test on A498 was > 100 µM (inactive) in each case. Also, the GI50 with SW-620 is > 100 µM (inactive); in the test with SNB-19, > 100 µM (inactive); with DLD-1, > 100 µM (inactive); in the test with OVCAR-5, > 100 µM (inactive); with CAKI-1, > 100 µM (inactive); in the test with HCT-15 it was more than 100 µM. The GI50 in the test on UACC-257, in the test with SR, in the test with SF-295, in the test on A549 and in the test on K562 was > 100 µM (inactive) throughout.
`CC1(C)CCc2cc3c(cc2O1)OCC1c2cc4c(cc2OC31)OCO4` (stereo not given): the GI50 in the test with NCI-H23 is > 100 µM (inactive); with OVCAR-4, > 100 µM (inactive); in the test on COLO 205, > 100 µM (inactive); in the test with EKVX, > 100 µM (inactive); with M19-MEL, 82.4 µM (inactive); with A498, > 100 µM (inactive). The GI50 in the test on SW-620 is > 100 µM (inactive); with SNB-19 it was > 100 µM (inactive); in the test on DLD-1, > 100 µM (inactive); with OVCAR-5 it was > 100 µM (inactive); with CAKI-1, > 100 µM (inactive); with HCT-15, 63 µM. Also, the GI50 in the test with UACC-257 was 28 µM (inactive); with SR, > 100 µM (inactive); in the test with SF-295 it was > 100 µM (inactive); in the test on A549 it was > 100 µM (inactive); with K562 it was 71.1 µM (inactive).
Consider `CC#Cc1c(C#CC)c(OC)c2c(c1OC)C(=O)c1ccccc1C2=O`, for which the GI50 in the test with NCI-H23 is 29.8 µM (inactive); in the test on OVCAR-4, > 100 µM (inactive); in the test with COLO 205, > 100 µM (inactive); with EKVX, 45.7 µM (inactive); with M19-MEL it was > 100 µM (inactive); with A498 it was 33.1 µM (inactive). The GI50 is > 100 µM (inactive) in the test on SW-620; 20.3 µM (inactive) in the test on SNB-19; 76 µM (inactive) with DLD-1; > 100 µM (inactive) in the test with OVCAR-5; 47.9 µM (inactive) in the test with CAKI-1; 61.7 µM in the test on HCT-15. The GI50 is > 100 µM (inactive) with UACC-257; 46.6 µM (inactive) in the test with SR; 13.3 µM (inactive) in the test on SF-295; 88.3 µM (inactive) with A549; > 100 µM (inactive) in the test on K562.
For the compound `CC(C)N(C(=O)C12C3C4C1C1C2C3C41C#N)C(C)C` (stereo not given), the GI50 in the test with NCI-H23, in the test with OVCAR-4, in the test with COLO 205, in the test on EKVX, in the test on M19-MEL and in the test on A498 was > 100 µM (inactive) in each case. Besides, the GI50 in the test on SW-620 was > 54.5 µM (inactive); in the test on SNB-19 it was > 100 µM (inactive); with DLD-1, > 72.8 µM (inactive); with OVCAR-5 it was > 100 µM (inactive); in the test on CAKI-1 it was > 100 µM (inactive); in the test on HCT-15, more than 72.8 µM. For the same compound, the GI50 is > 100 µM (inactive) in the test on UACC-257; 20.2 µM (inactive) with SR; > 100 µM (inactive) in the test on SF-295; > 100 µM (inactive) in the test with A549; > 69.2 µM (inactive) with K562.
Regarding `NNC(=S)N/N=C(/C(=O)Nc1cc(Cl)ccc1Cl)C1C(=O)Nc2ccccc2[S+]1[O-]` (stereo not given), the GI50 is > 100 µM (inactive) in the test with NCI-H23; > 100 µM (inactive) in the test on OVCAR-4; > 100 µM (inactive) in the test with COLO 205; 55.1 µM (inactive) with EKVX; > 100 µM (inactive) in the test on M19-MEL; > 100 µM (inactive) in the test on A498. In addition, the GI50 is > 100 µM (inactive) in the test with SW-620; > 100 µM (inactive) in the test with SNB-19; > 100 µM (inactive) in the test with DLD-1; > 100 µM (inactive) in the test on OVCAR-5; > 100 µM (inactive) in the test with CAKI-1; more than 100 µM in the test with HCT-15. Besides, the GI50 was > 100 µM (inactive) in the test with UACC-257; 94.2 µM (inactive) in the test with SR; > 100 µM (inactive) with SF-295; 73.3 µM (inactive) in the test on A549; > 100 µM (inactive) in the test with K562.
With `CC(C)(C)C1(O)Cc2ccccc2C(=O)O1` (stereo not given), the GI50 with NCI-H23, with OVCAR-4, in the test on COLO 205, in the test on EKVX, with M19-MEL and in the test with A498 was > 100 µM (inactive) each time. Also, the GI50 in the test on SW-620 was > 100 µM (inactive); in the test on SNB-19, > 100 µM (inactive); in the test on DLD-1, > 100 µM (inactive); in the test with OVCAR-5 it was > 100 µM (inactive); in the test with CAKI-1 it was > 100 µM (inactive); in the test with HCT-15, more than 100 µM. The GI50 with UACC-257, with SR, with SF-295, in the test with A549 and in the test on K562 was > 100 µM (inactive) in each case.
Consider `CCN1CCC(O)(c2ccc(OC)cc2)C(C(=O)c2ccc(OC)cc2)C1` (stereo not given), for which the GI50 with NCI-H23 was 17.7 µM (inactive); in the test on OVCAR-4, 17.7 µM (inactive); in the test with COLO 205, 22.9 µM (inactive); with EKVX, 30.5 µM (inactive); in the test on M19-MEL, 18.3 µM (inactive); in the test with A498, > 10 µM (inactive). Moreover, the GI50 with SW-620 is 10.8 µM (inactive); with SNB-19 it was 28.6 µM (inactive); with DLD-1, 16.9 µM (inactive); in the test on OVCAR-5 it was 18.4 µM (inactive); with CAKI-1 it was 17.2 µM (inactive); with HCT-15, 20.3 µM. Further, the GI50 was 20.6 µM (inactive) in the test on UACC-257; 22.7 µM (inactive) in the test with SR; > 100 µM (inactive) in the test on SF-295; 18.1 µM (inactive) with A549; 26.1 µM (inactive) with K562.
With `CNS(=O)(=O)NNS(=O)(=O)c1ccc(Cl)cc1`, the GI50 in the test on NCI-H23, in the test with OVCAR-4, in the test on COLO 205, in the test on EKVX, in the test on M19-MEL and in the test with A498 was > 100 µM (inactive) each time. For the same compound, the GI50 in the test with SW-620, in the test on SNB-19, in the test on DLD-1, with OVCAR-5, with CAKI-1 and with UACC-257 was > 100 µM (inactive) in each case. In addition, the GI50 in the test with SR, in the test on SF-295, in the test with A549 and in the test with K562 was > 100 µM (inactive) in each case.
Turning to `Cc1cc2c3ccccc3n(C)c2c2c1C(=O)c1ccccc1C2=O`, the GI50 was 15.6 µM (inactive) in the test with NCI-H23; 17.8 µM (inactive) in the test on OVCAR-4; 21.1 µM (inactive) with COLO 205; 24.3 µM (inactive) in the test with EKVX; 3.01 µM (inactive) with M19-MEL; 25.6 µM (inactive) with A498. In addition, the GI50 in the test on SW-620 is 25 µM (inactive); with SNB-19, 33.5 µM (inactive); in the test with DLD-1 it was 14.6 µM (inactive); in the test on CAKI-1, 21.9 µM (inactive); with UACC-257 it was 20 µM (inactive); with SR it was 6.24 µM (inactive). The results for the GI50 with SF-295, in the test with A549 and in the test with K562 were 13.6 µM (inactive), 21.3 µM (inactive) and 20.4 µM (inactive), respectively.

(Values after ChEMBL document CHEMBL1201862, “PubChem BioAssay data set” (2004).)
